The test system of test [1] is Casein Kinase in MCF-7 cells. Description: Casein Kinase level in MCF-7 cells. The test is classed as cell-based, human. The following applies: MCF-7 cells treated for 9 days (FIG. 11).
The test system of test [2] is estrogen receptor-α (ER-α) in MCF-7 cells. Kind of test: Western blot analysis of ER-α level in MCF-7 cells. The test is classed as cell-based, human. The following applies: MCF-7 cells treated for 9 days (FIG. 9). The method, then: Turning to FIG. 1 there are shown Western blot analyses showing the effect of 1,3cPP on the expression level of ER-α. In the ER-α assay, MCF-7 cells were incubated with 1-100 μM 1,3cPP for up to 14 days. The analysis indicates a relative increase in the level of wild type ER-α receptor (MW 70,000) with either an increase in 1,3cPP concentration or time of incubation. On days 6 and 14, a nearly 2-fold and 3-fold increase were observed, respectively (FIGS. 1A, C, D, F). […] This band could be related to one of deleted exons D3-4 (MW 49,000), D4 (MW 54,000), or D7 (MW 51,000) ER-α variants.
(§1) Breast Cancer Cells. The human breast cancer MCF-7 cell line were obtained from Prof. Hadassa Degani, of Weizmann Institute of Science, Rehovot, Israel. The cells were grown as monolayers in high glucose DMEM supplemented with 6% fetal calf serum and combined antibiotics. Human breast cancer T47D cells, clones 8 (ER^loPR^lo) and 11 (ER^+PR^+) were obtained from Prof Iafa Keydar, Tel-Aviv university and were grown in DMEM supplemented with 10% fetakl calf serum antibiotics. K562 erythroleukemia cells were obtained from Dr. Alfa Peled of Weizmann Institute of Science, Rehovot, Israel. These cells were grown in RPMI 1640 containing 10% fetal calf serum and antibiotics. All lines were grown at 37° C. in the presence of 5% CO2. The absence of Mycoplasma contamination was monitored by a Mycotrim TC test (Irvine Scientific, Santa Ana, Calif.) carried out once every 3 months.
For ER-α protein analysis, MCF-7 and T47D cells were cultured in 60×15 mm petri dishes. From the second day of culture onward, the cells were treated with various concentrations of 1,3cPP for up to 14 days. At the end of the incubation period, the medium was aspirated and the cells were washed 3 times with cold (4° C.) PBS. The cells were then gently scraped off using a rubber policeman in 0.25 ml of lysis buffer composed of 50 mM β-glycerophosphate, 1 mM DTT, 1.5 mM EGTA, 1 mM EDTA, 1% (Octylphenoxy)polyethoxyethanol (IGEPAL, Sigma, St. Louis, Mo.), a nonionic detergent, and a cocktail of protease inhibitors, including 1 mM phenylmethylsulfonyl fluoride (PMSF), 1 mM benzamidine, 10 μg/ml aprotinin, 10 μg/ml leupeptin, and 2 μg/ml pepstanin, as well as 1 mM sodium orthovanadate (Sigma, St. Louis, Mo.) as a phosphatase inhibitor. […] The protein concentration in each sample (1.5-4 mg/ml) was determined using the Coomassie Protein Assay (Pierce, Rockford, Ill.) according to the manufacturer's instructions. […] Bound antibodies were detected by horseradish peroxidase-conjugated goat anti-rabbit IgG, (Transduction Laboratories, Lexington, Ky. using the ECL detection method. Band densities were quantified by densitometry (Biorad model GS-690 Imaging densitometer) using Molecular Analyst software.
(In general: Immunoblotting shows a protein as a band on a membrane.)

For test [3], the system named is progesterone receptor (PR) in MCF-7 cells. Kind of test: Western blot analysis of PR level in MCF-7 cells. The test is classed as cell-based, human. The conditions noted are these: MCF-7 cells treated for 9 days (FIG. 10). The method, then: In an analogous manner, a set of experiments was preformed with MCF-7 cells for determining the level of PR upon incubation with varying concentrations of 1,3-cPP for a period of up to 11 days. Similar to the augmentation observed for ER-α, an increase of up to 2.8 and 2.2 fold expression of the wild type PR (MW 98,000), was observed from 10 μM 1,3-cPP and upwards on days 8 and 11, respecively (FIGS. 3A-D).
as §1
For ER-α protein analysis, MCF-7 and T47D cells were cultured in 60×15 mm petri dishes. From the second day of culture onward, the cells were treated with various concentrations of 1,3cPP for up to 14 days. At the end of the incubation period, the medium was aspirated and the cells were washed 3 times with cold (4° C.) PBS. […] The protein concentration in each sample (1.5-4 mg/ml) was determined using the Coomassie Protein Assay (Pierce, Rockford, Ill.) according to the manufacturer's instructions. […] Bound antibodies were detected by horseradish peroxidase-conjugated goat anti-rabbit IgG, (Transduction Laboratories, Lexington, Ky. using the ECL detection method. Band densities were quantified by densitometry (Biorad model GS-690 Imaging densitometer) using Molecular Analyst software.

The test system of the next test is K562 cells. The method, then:
It is known from the literature that sodium butyrate derives K562 cells into the erythroid differentiation program (Sutherland et al. 1986). Base on such an observation, the ability of 1,3-cPP alone or in combination with sodium butyrate may trigger the erythroid differentiation program manifested by hemoglobin production.
K562 cells were incubated for 5 days in the presence or absence of 10 or 50 μM 1,3cPP and 1 mM butyric acid as a differentiating agent. Quantitative measurements of hemoglobin production was determined by staining of lysed cells with benzidine-peroxide reagent. The benzidine-peroxide reagent was prepared by dissolving 3,3′,5,5′-tetramethyl benzidine in 90% acetic acid and mixing with an equal volume of freshly prepared 1% hydrogen peroxide. Cell lysate, obtained by hypotonic lysing of 5×10^4 cells in 0.1 ml distilled water, was added to 0.1 ml benzidine reagent and incubated at room temperature for 10 minutes in the dark. Absorbance was measured at 515 nm and was taken as a relative index of the hemoglobin level.

Consider `NC1(CO)COP(=O)(O)OC1` (stereo not shown) [Example 18, 5-Amino-5-hydroxymethyl-2-oxo-2λ5-[1,3,2]dioxaphosphi-nan-2-ol], for which, in test [1], the “Casein Kinase level” value is “promotion of Casein Kinase levels”. In test [2], the “Estrogen receptor alpha level” value was “promotion of synthesis”. The progestrone receptor level entry in test [3] is reported as “promotion of synthesis”.
`CCCC(=O)[O-].[Na+]` [sodium butyrate, reference compound]: the hemoglobin synthesis entry with K562 cells is given as “only a small effect”.

The record behind these values is patent publication US20060014726A1, “Derivatives of cyclic1, 3- propanediol phosphate and their action in differentiation therapy” (priority 2002, published 2006).
